Assay results taken from US20260078120A1, “SUBSTITUTED PYRIDOPYRIMIDINONES” (MIRATI THERAPEUTICS, INC., priority 2022, published 2026).

Experiments:
Format in all cases: cell-based
[1] = system: MKN1 (PI3Kα E545K mutant) cells; experiment: Inhibition of pAKT formation, alphaLISA SureFire Ultra AKT 1/2/3 (pS473), MKN1 cells; details: Homo sapiens, MKN-1; MKN1 (PI3Kα E545K mutant) cells; inhibition of pAKT (pS473) formation; approximately one hour or 24 hours treatment; read-out: MKN1 (E545K) pAKT IC50
Protocol: (§1) The ability of a compound of Formula (I) to inhibit the formation of pAKT was measured using alphaLISA Surefire Ultra AKT 1/2/3 (pS473) Assay Kit (#ALSU-PAKT-B50K) was obtained from Perkin Elmer (Waltham, MA).
(§2) To prepare assay plates for pAKT alphaLISA assays, cells were trypsinized, resuspended in fresh media, and viable cells were counted utilizing trypan blue exclusion. Prior to seeding, cells were washed with PBS and resuspended in HBSS (Gibco, #14025092). T47D (12,000/w), SKBR3(12,000/w), or MKN1(24,000/w) cells were seeded at 12 μl per well in a solid white flat bottom 384 cell culture plate (Perkin Elmer #6007680).
(§3) Immediately after seeding, cells were dosed using an Echo Liquid Handler (Beckman Coulter) with compounds at a […] starting concentration and serially diluted (1:4) for a total of 10 concentrations. […] Cells were incubated with the compounds (solubilized in DMSO) for approximately one hour or 24 hours at 37° C. After one hour (or 24 hours) of treatment, cells were lysed with 3 μl of the 5× lysis buffer (provided and incubated at room temperature for 15 min on a microtiter plate shaker). Once cells were sufficiently lysed, 7.5 μl of the acceptor bead mix (made using the manufacturers recommended dilutions) was added to each well and left on the microtiter plate shaker for 1 min prior to incubating plates at room temperature for one hour, in the absence of light. After one hour of incubation with the acceptor bead mix, 7.5 μl of the donor bead mix (made using the manufacturers recommended dilutions) was added to each well and left on the microtiter plate shaker for 1 min prior to incubating plates at room temperature overnight in the absence of light. Plates were then imaged the following day using a CLARIOstar microplate reader (BMG Labtech, Germany).
(§4) Percent of control values were calculated by subtracting the average signal from the positive control (alpelisib) treated wells from all treated wells (including DMSO control wells) and then divided by the average signal from the vehicle DMSO treated control wells. Percent of vehicle control values were plotted as log (inhibitor) vs. response-Variable slope (four parameters) for curve fitting and IC50 values were determined using XLfit.
(§5) Key: N.D. =not determined

[2] = system: SKBR3 (PI3Kα wild type) cells; experiment: Inhibition of pAKT formation, alphaLISA SureFire Ultra AKT 1/2/3 (pS473), SKBR3 cells; details: Homo sapiens, SK-BR-3; Inhibition of pAKT in SKBR3 (PI3Kα wild type) cells; read-out: SKBR3 (WT) pAKT IC50 (nM) (H1047R mutant) IC50
Protocol: as §1, §2, §3, §4, §5

[3] = system: SKBR3 (PI3Kα wild type) cells; experiment: CellTiter-Glo 2.0 luminescent cell viability assay, 72 hours, SKBR3 cells; details: Homo sapiens, SK-BR-3, 72 h, SKBR3 (PI3Kα wild type) cells, CellTiter-Glo, approximately 72 hours; read-out: SKBR3 (WT) Viability IC50
Procedure, shortened: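 Viability measured via CTG luminescence following roughly 72 hours of compound exposure at 37° C. Dosing used a 10 um starting concentration diluted 1:4 over 10 points; percent-of-vehicle data fitted with a variable-slope four-parameter model for IC50.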

[4] = system: T47D (PI3Kα H1047R mutant) cells; experiment: CellTiter-Glo 2.0 luminescent cell viability assay, 72 hours, T47D cells; details: Homo sapiens, T47D, 72 h, T47D (PI3Kα H1047R mutant) cells, CellTiter-Glo, approximately 72 hours; read-out: T47D (H1047R mutant) Viability IC50
Procedure, shortened: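 Cells seeded at 1000 per well overnight were dosed with a 10-concentration, 1:4 series starting at 10 µM and incubated ~72 h at 37° C. Viability was read by CellTiter-Glo 2.0 luminescence after 30 min at room temperature. IC50 came from four-parameter fits of percent vehicle control.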

[5] = system: T47D (PI3Kα H1047R mutant) cells; experiment: Inhibition of pAKT formation, alphaLISA SureFire Ultra AKT 1/2/3 (pS473), T47D cells; details: Homo sapiens, T47D, T47D (PI3Kα H1047R mutant) cells; inhibition of pAKT (pS473) formation; approximately one hour or 24 hours treatment; read-out: T47D pAKT (H1047R mutant) IC50
Procedure, shortened: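 T47D cells (12,000/well) in HBSS were dosed with compound at 10 concentrations (10.4 μM top, 1:4 dilutions) for about 1 h or 24 h at 37 °C, then lysed. pS473 AKT was read by alphaLISA. Signals were normalized to alpelisib and DMSO controls, and IC50 came from a four-parameter fit.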

[6] = system: MKN1 (PI3Kα E545K mutant) cells; experiment: CellTiter-Glo 2.0 luminescent cell viability assay, 72 hours, MKN1 cells; details: Homo sapiens, MKN-1; MKN1 (PI3Kα E545K mutant) cells, CellTiter-Glo, approximately 72 hours; read-out: MKN1 (E545K) Viability IC50
Protocol: This Example illustrates that exemplary compounds of the present invention decrease the viability of cells.
The ability of a compound of Formula (I) to decrease the viability of cells was measured using CellTiter-Glo 2.0 (CTG) Luminescent Cell Viability Assay (#G9241) obtained from Promega (Madison, WI).
To prepare assay plates for viability assays, cells were trypsinized, resuspended in fresh media, and viable cells were counted utilizing trypan blue exclusion. T47D, SKBR3, or MKN1 cells were seeded at 1000 cells in 30 μl per well in a solid white flat bottom 384 cell culture plate (Perkin Elmer #6007680) and incubated at 37° C. overnight.
Assay day 1, cells were dosed using an Echo Liquid Handler (Beckman Coulter) with compounds at a 10 um starting concentration and serially diluted (1:4) for a total of 10 concentrations. Cells were incubated for approximately 72 hours with the compounds (solubilized in DMSO) at 37° C. After 72 hours of treatment, cell plates were equilibrated to room temperature before adding 15 μl of CTG to each well, plates were then covered in aluminum foil to protect from light, incubated at room temperature for 30 minutes on a microtiter plate shaker, and luminescence readings were collected using a CLARIOstar microplate reader (BMG Labtech, Germany). Percent of vehicle control values were plotted as log (inhibitor) vs. response-Variable slope (four parameters) for curve fitting and IC50 values were determined using XLfit.

IC50 [1]	IC50 [2]	IC50 [3]	IC50 [4]	IC50 [5]	IC50 [6]	SMILES
> 10 µM	8030 nM	> 10 µM	> 10 µM	> 10 µM	> 10 µM	COc1ccc(C(=O)O)c(NC(C)c2cc(C)cn3c(=O)cc(N4CCCCC4)nc23)c1 (stereo not shown) [Example 3-7, 4-methoxy-2-((1-(7-methyl-4-oxo-2-(piperidin-1-yl)-4H-pyrido[1,2-a]pyrimidin-9-yl)ethyl)amino)benzoic acid]
> 10 µM	> 10000 nM	> 10 µM	> 10 µM	> 10 µM	> 10 µM	Cc1cc(C(C)Nc2ccccc2)c2nc(N3CCCCC3)cc(=O)n2c1 (stereo not shown) [Example 1, 7-methyl-9-(1-(phenylamino)ethyl)-2-(piperidin-1-yl)-4H-pyrido[1,2-a]pyrimidin-4-one]
3.99 µM	> 10000 nM	> 10 µM	> 10 µM	1.06 µM	> 10 µM	Cc1cc(C(C)Nc2ccccc2C(N)=O)c2nc(N3CCCCC3)cc(=O)n2c1 (stereo not shown) [Example 3-13, 2-((1-(7-methyl-4-oxo-2-(piperidin-1-yl)-4H-pyrido[1,2-a]pyrimidin-9-yl)ethyl)amino)benzamide]
3.5 µM	683 nM	> 10 µM	0.43 µM	0.021 µM	> 10 µM	Cc1cc(C(C)Nc2ccccc2C(=O)O)c2nc(N3Cc4ccccc4C3)c(C)c(=O)n2c1 (stereo not shown) [Example 5-9, 2-((1-(2-(isoindolin-2-yl)-3,7-dimethyl-4-oxo-4H-pyrido[1,2-a]pyrimidin-9-yl)ethyl)amino)benzoic acid]
> 10 µM	2670 nM	> 10 µM	> 10 µM	> 10 µM	> 10 µM	Cc1cc(C(C)Nc2ccc(O)cc2C(=O)O)c2nc(N3CCCCC3)cc(=O)n2c1 (stereo not shown) [Example 3-6, 5-hydroxy-2-((1-(7-methyl-4-oxo-2-(piperidin-1-yl)-4H-pyrido[1,2-a]pyrimidin-9-yl)ethyl)amino)benzoic acid]
> 10 µM	44.3 nM	> 10 µM	5.76 µM	1.97 µM	> 10 µM	COC(=O)c1ccccc1NC(C)c1cc(C)cn2c(=O)cc(N3CCCCC3)nc12 (stereo not shown) [Example 3-12, methyl 2-((1-(7-methyl-4-oxo-2-(piperidin-1-yl)-4H-pyrido[1,2-a]pyrimidin-9-yl)ethyl)amino)benzoate]
> 10 µM	> 10000 nM	> 10 µM	> 10 µM	2.51 µM	–	Cc1cc(C(C)Sc2ccccc2C(=O)O)c2nc(N3CCCCC3)cc(=O)n2c1 (stereo not shown) [Example 3-10, 2-((1-(7-methyl-4-oxo-2-(piperidin-1-yl)-4H-pyrido[1,2-a]pyrimidin-9-yl)ethyl)thio)benzoic acid]
> 10 µM	> 10000 nM	> 10 µM	9.03 µM	> 10 µM	–	Cc1cc([C@H](C)Nc2ccccc2C(=O)O)c2nc(N3CCC(C)(C)CC3)c(C)c(=O)n2c1 (single isomer, unassigned) [Example 5-2]
8.83 µM	> 10000 nM	–	–	2.28 µM	–	Cc1cc(C(C)Nc2cccc(O)c2C(=O)O)c2nc(N3CCCCC3)cc(=O)n2c1 (stereo not shown) [Example 3-4, 2-hydroxy-6-((1-(7-methyl-4-oxo-2-(piperidin-1-yl)-4H-pyrido[1,2-a]pyrimidin-9-yl)ethyl)amino)benzoic acid]
3.25 µM	> 10000 nM	0.799 µM	1.64 µM	0.0705 µM	–	Cc1cc(C(C)Nc2ccccc2C(=O)O)c2nc(N3CCC4(CC3)CC4)cc(=O)n2c1 (stereo not shown) [Example 3-22, 2-((1-(7-methyl-4-oxo-2-(6-azaspiro[2.5]octan-6-yl)-4H-pyrido[1,2-a]pyrimidin-9-yl)ethyl)amino)benzoic acid]
–	3650 nM	> 10 µM	0.183 µM	0.0077 µM	–	Cc1cc([C@@H](C)Nc2cscc2C(=O)O)c2nc(N3CCC(F)(F)CC3)c(C#N)c(=O)n2c1 [Example 10-61, (R)-4-((1-(3-cyano-2-(4,4-difluoropiperidin-1-yl)-7-methyl-4-oxo-4H-pyrido[1,2-a]pyrimidin-9-yl)ethyl)amino)thiophene-3-carboxylic acid]
–	780 nM	> 10 µM	0.052 µM	0.0021 µM	–	Cc1cc([C@@H](C)Nc2ccccc2C(=O)O)c2nc(N3CC(F)(F)C3)c(C#N)c(=O)n2c1 [Example 10-27, (R)-2-((1-(3-cyano-2-(3,3-difluoroazetidin-1-yl)-7-methyl-4-oxo-4H-pyrido[1,2-a]pyrimidin-9-yl)ethyl)amino)benzoic acid]
–	847 nM	> 10 µM	0.628 µM	0.0161 µM	–	Cc1cc([C@@H](C)Nc2ccc(Cl)cc2C(=O)O)c2nc(N3CCC(F)(F)CC3)c(C#N)c(=O)n2c1 [Example 10-64, (R)-5-chloro-2-((1-(3-cyano-2-(4,4-difluoropiperidin-1-yl)-7-methyl-4-oxo-4H-pyrido[1,2-a]pyrimidin-9-yl)ethyl)amino)benzoic acid]
> 10 µM	–	–	–	> 10 µM	–	Cc1cc(C(C)N(C)c2ccccc2C(=O)O)c2nc(N3CCCCC3)cc(=O)n2c1 (stereo not shown) [Example 3-21, 2-(methyl(1-(7-methyl-4-oxo-2-(piperidin-1-yl)-4H-pyrido[1,2-a]pyrimidin-9-yl)ethyl)amino)benzoic acid]
–	2480 nM	> 10 µM	0.151 µM	0.00133 µM	–	Cc1cc([C@@H](C)Nc2ccccc2C(=O)O)c2nc(N3CCC(C)(C)CC3)c(C#N)c(=O)n2c1 [Example 10-72, (R)-2-((1-(3-cyano-2-(4,4-dimethylpiperidin-1-yl)-7-methyl-4-oxo-4H-pyrido[1,2-a]pyrimidin-9-yl)ethyl)amino)benzoic acid]
–	> 10000 nM	> 10 µM	4.68 µM	> 10 µM	–	Cc1cc([C@@H](C)Nc2ccccc2C(=O)O)c2nc(N3CCCCC3)c(C(N)=O)c(=O)n2c1 [Example 10-70, (R)-2-((1-(3-carbamoyl-7-methyl-4-oxo-2-(piperidin-1-yl)-4H-pyrido[1,2-a]pyrimidin-9-yl)ethyl)amino)benzoic acid]
